According to ChEMBL document CHEMBL1201862, “PubChem BioAssay data set” (2004):
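Interpolation was linear, between the two tested concentrations surrounding the appropriate level; five concentrations were tested over 48 hours in 96-well plates. GI50 = concentration required for 50% inhibition of growth.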 The source made the active and inactive calls. Cut-off read from the data, not from the text of the source: active = GI50 up to about 1.1 µM and inactive = higher. Residues, ends and D or L forms follow the SMILES beside them. *: point of attachment. Boc = CC(C)(C)OC(=O)*

How the values were obtained:
Experiment in all cases: NCI-60 cell line screen, 48 h
MDA-MB-231 = test system: MDA-MB-231
K562 = test system: K562
OVCAR-5 = test system: OVCAR-5
NCI-H23 = test system: NCI-H23
OVCAR-3 = test system: OVCAR-3
A498 = test system: A498
BT-549 = test system: BT-549
HOP-62 = test system: HOP-62
CCRF-CEM = test system: CCRF-CEM
DU-145 = test system: DU-145
EKVX = test system: EKVX
CAKI-1 = test system: CAKI-1
RPMI-8226 = test system: RPMI-8226
ACHN = test system: ACHN

Measured: GI50

CC(C)(C)OC(=O)NC(Cc1ccccc1)C(=O)N[C@H]1c2ccsc2/C(=N/O)[C@H]1O (some centres not stated)
inactive: MDA-MB-231 > 100 µM | K562 > 100 µM | OVCAR-5 > 100 µM | NCI-H23 > 100 µM | OVCAR-3 > 100 µM | A498 > 100 µM | BT-549 > 100 µM | HOP-62 > 100 µM | CCRF-CEM > 100 µM | DU-145 > 100 µM | EKVX > 100 µM | CAKI-1 > 100 µM

CC(C)=CC(O)C(C(O)CCC1(C)OCCO1)S(=O)(=O)c1ccccc1 (configuration not stated)
inactive: MDA-MB-231 > 100 µM | OVCAR-5 > 100 µM | RPMI-8226 > 100 µM | NCI-H23 > 100 µM | OVCAR-3 > 100 µM | A498 > 100 µM | BT-549 > 100 µM | HOP-62 > 100 µM | CCRF-CEM > 100 µM | ACHN > 100 µM | EKVX > 100 µM | CAKI-1 > 100 µM

CCOC(=O)C(NC(=O)c1cccc(Cl)c1)(Nc1ccc(S(=O)(=O)Nc2cc(C)on2)cc1)C(F)(F)F (configuration not stated)
inactive: MDA-MB-231 > 100 µM | K562 > 100 µM | OVCAR-5 > 100 µM | RPMI-8226 > 100 µM | NCI-H23 > 100 µM | OVCAR-3 > 100 µM | A498 > 100 µM | HOP-62 > 100 µM | CCRF-CEM > 100 µM | DU-145 > 100 µM | ACHN > 100 µM | EKVX > 100 µM | CAKI-1 > 100 µM

Cc1c(N2C(=O)/C(=C/c3ccc(Cl)cc3)N=C2c2ccccc2)c(=O)n(-c2ccccc2)n1C
inactive: MDA-MB-231 33.8 µM | K562 36.6 µM | OVCAR-5 49.2 µM | RPMI-8226 17.8 µM | NCI-H23 26.2 µM | OVCAR-3 27.1 µM | BT-549 47.4 µM | HOP-62 81.5 µM | CCRF-CEM 28.3 µM | DU-145 38.2 µM | ACHN 24.8 µM | EKVX 19.7 µM | CAKI-1 34.6 µM

O=c1sc(Nc2ccc3ccccc3c2Cl)nc2ccccc12
inactive: MDA-MB-231 > 100 µM | K562 > 100 µM | OVCAR-5 > 100 µM | RPMI-8226 > 100 µM | NCI-H23 > 100 µM | OVCAR-3 > 100 µM | BT-549 > 100 µM | HOP-62 > 100 µM | CCRF-CEM > 100 µM | DU-145 > 100 µM | ACHN > 100 µM | EKVX > 100 µM | CAKI-1 35.9 µM

COC(CC1(/C=C/O[Si](C(C)C)(C(C)C)C(C)C)C(=O)N(COCC[Si](C)(C)C)c2ccccc21)OC (configuration not stated)
inactive: MDA-MB-231 21.1 µM | K562 > 100 µM | OVCAR-5 37.4 µM | RPMI-8226 > 100 µM | NCI-H23 25.1 µM | OVCAR-3 13.1 µM | A498 > 100 µM | HOP-62 66.8 µM | CCRF-CEM 13.4 µM | DU-145 > 100 µM | ACHN 26.6 µM | CAKI-1 46.3 µM

COc1ccc(CC2(O)C3CC4CCC2C4C3)cc1 (configuration not stated)
inactive: K562 49.1 µM | OVCAR-5 > 100 µM | RPMI-8226 > 100 µM | NCI-H23 64.4 µM | OVCAR-3 > 100 µM | BT-549 36.6 µM | HOP-62 > 100 µM | CCRF-CEM 42 µM | ACHN > 100 µM | EKVX 49.8 µM | CAKI-1 > 100 µM

COC(=O)C1OC2(CCCC3CC32)O[C@H]1C(=O)OC (some centres not stated)
inactive: MDA-MB-231 > 100 µM | K562 > 100 µM | OVCAR-5 > 100 µM | RPMI-8226 > 100 µM | NCI-H23 > 100 µM | OVCAR-3 > 100 µM | BT-549 > 100 µM | HOP-62 > 100 µM | CCRF-CEM > 100 µM | DU-145 > 100 µM | ACHN > 100 µM | EKVX > 100 µM | CAKI-1 > 100 µM

O=C(Nc1ccn(C2CC(O)C(COC(c3ccccc3)(c3ccccc3)c3ccccc3)O2)c(=O)n1)c1ccccc1 (configuration not stated)
inactive: MDA-MB-231 3.05 µM | K562 2.92 µM | OVCAR-5 1.87 µM | RPMI-8226 2.53 µM | NCI-H23 1.33 µM | OVCAR-3 2.03 µM | HOP-62 5.62 µM | CCRF-CEM 2.79 µM | DU-145 5.61 µM | ACHN 3.35 µM | EKVX 4.27 µM | CAKI-1 6.32 µM

CC(NC(=O)C(NC(=O)OC(C)(C)C)C(C)C)C(=O)N1CCCC1C(=O)NCC(=O)NC(C(=O)NCC(=O)O)C(C)C (configuration not stated) (Boc-VAPGVG-OH; configuration not given here)
inactive: MDA-MB-231 92.3 µM | K562 > 100 µM | OVCAR-5 > 100 µM | RPMI-8226 > 100 µM | NCI-H23 > 100 µM | OVCAR-3 > 100 µM | A498 > 100 µM | HOP-62 > 100 µM | CCRF-CEM > 100 µM | DU-145 > 100 µM | ACHN > 100 µM | EKVX > 100 µM | CAKI-1 > 100 µM

CCCCCCCCCCCCOCCOCCOCCOCCOCCOCC(=O)NC(Cc1ccccc1)C(=O)Oc1ccc([N+](=O)[O-])cc1 (configuration not stated)
inactive: MDA-MB-231 60.3 µM | K562 41.7 µM | OVCAR-5 > 100 µM | RPMI-8226 23.2 µM | NCI-H23 32.3 µM | OVCAR-3 22.9 µM | A498 39.6 µM | BT-549 25.5 µM | HOP-62 40.9 µM | CCRF-CEM 31.7 µM | ACHN 27.2 µM | EKVX 61.2 µM | CAKI-1 > 100 µM

O=c1cnnc2sc(=S)[nH]n12
inactive: K562 15.6 µM | OVCAR-5 > 100 µM | RPMI-8226 13.7 µM | OVCAR-3 32.4 µM | A498 > 100 µM | BT-549 14.1 µM | HOP-62 2.61 µM | CCRF-CEM 2.07 µM | DU-145 > 100 µM | ACHN 53.5 µM | EKVX > 100 µM | CAKI-1 21.9 µM

Cc1ccc(/C=C2\Cc3c(C)cc(C)cc3C2=O)c(C(=O)O)c1
inactive: K562 54.7 µM | OVCAR-5 33.2 µM | RPMI-8226 19.3 µM | NCI-H23 55.5 µM | OVCAR-3 31 µM | A498 30.1 µM | BT-549 28.6 µM | HOP-62 83.4 µM | CCRF-CEM 35.1 µM | DU-145 51.5 µM | ACHN 59.6 µM | EKVX 33.4 µM | CAKI-1 > 100 µM

O=C1OC(=O)c2c1cc1cc3c(cc1c2-c1ccc2c(c1)OCO2)OCO3
inactive: MDA-MB-231 > 100 µM | K562 > 100 µM | OVCAR-5 > 100 µM | RPMI-8226 > 100 µM | NCI-H23 > 100 µM | OVCAR-3 > 100 µM | A498 > 100 µM | BT-549 > 100 µM | CCRF-CEM > 100 µM | DU-145 > 100 µM | ACHN > 100 µM | CAKI-1 > 100 µM

COc1ccc(-c2nc(-c3cnccn3)n(Cc3ccccc3)n2)cc1
inactive: MDA-MB-231 > 100 µM | K562 > 100 µM | OVCAR-5 > 100 µM | RPMI-8226 > 100 µM | NCI-H23 > 100 µM | OVCAR-3 > 100 µM | BT-549 > 100 µM | HOP-62 > 100 µM | CCRF-CEM > 100 µM | DU-145 > 100 µM

O=c1ccn(C2OC(COC3CCCCO3)C(OC3CCCCO3)C2OC2CCCCO2)c(=O)n1-c1ccccc1 (configuration not stated)
inactive: MDA-MB-231 > 100 µM | K562 91.6 µM | OVCAR-5 > 100 µM | RPMI-8226 > 100 µM | NCI-H23 > 100 µM | OVCAR-3 > 100 µM | A498 > 100 µM | HOP-62 > 100 µM | CCRF-CEM > 100 µM | DU-145 > 100 µM | ACHN > 100 µM | EKVX > 100 µM | CAKI-1 > 100 µM

CC(=O)c1cc2sc3ccccc3c2[nH]1
inactive: MDA-MB-231 > 100 µM | K562 > 100 µM | OVCAR-5 > 100 µM | RPMI-8226 16.3 µM | NCI-H23 > 100 µM | OVCAR-3 > 100 µM | A498 > 100 µM | HOP-62 > 100 µM | DU-145 > 100 µM | ACHN > 100 µM | CAKI-1 > 100 µM

CCOc1cc(C=O)ccc1O [ETHYL VANILLIN]
inactive: MDA-MB-231 > 100 µM | K562 > 100 µM | OVCAR-5 > 100 µM | RPMI-8226 > 100 µM | NCI-H23 > 100 µM | OVCAR-3 > 100 µM | HOP-62 > 100 µM | CCRF-CEM > 10 µM | DU-145 > 100 µM | ACHN > 100 µM | EKVX > 100 µM | CAKI-1 > 100 µM

COc1ccc(C(=O)/C=C/S/C(=N/C#N)SC)cc1
inactive: MDA-MB-231 13.7 µM | K562 10.7 µM | OVCAR-5 24 µM | RPMI-8226 4.33 µM | NCI-H23 16.9 µM | OVCAR-3 16.4 µM | A498 24.5 µM | HOP-62 24.3 µM | DU-145 21.7 µM | ACHN 20.4 µM | EKVX 35.3 µM | CAKI-1 22.9 µM

CN(C)CN1C(=O)/C(=N\n2c(S)nnc2-c2ccncc2)c2ccccc21
inactive: MDA-MB-231 > 100 µM | K562 26.5 µM | OVCAR-5 > 100 µM | NCI-H23 37.8 µM | OVCAR-3 66.5 µM | A498 > 100 µM | BT-549 94.4 µM | HOP-62 24.8 µM | CCRF-CEM 9.38 µM | DU-145 26.5 µM | ACHN 48.1 µM | EKVX > 100 µM | CAKI-1 69.3 µM

Cc1ccc2nc(NC(=O)/C(Cc3nc4ccc(Cl)cc4nc3O)=N\NC(C)(C)C)sc2c1
inactive: MDA-MB-231 > 100 µM | K562 > 100 µM | OVCAR-5 > 100 µM | RPMI-8226 > 100 µM | NCI-H23 > 100 µM | OVCAR-3 > 100 µM | A498 > 100 µM | BT-549 > 100 µM | CCRF-CEM > 100 µM | DU-145 > 100 µM | ACHN > 100 µM | CAKI-1 41.8 µM
